Key:
[1] = Stock solution stability (bioanalytical stock solutions); assay type: physicochemical; conditions: polypropylene container
[2] = Nonclinical PK/PD study of low-dose dasatinib in NS and NSML mice for hypertrophic cardiomyopathy; conditions: mouse, in vivo, doses 0.05 mg/kg to 0.5 mg/kg, based on exposure-response relationship, read-out: suggested potential target AUC for cardiac rescue
Experimental: A nonclinical study in mice was conducted to determine the PK and PD properties of a low-dose treatment of dasatinib in NS and NSML mice for the treatment of Hypertrophic cardiomyopathy (HCM). The goal was to establish in the same mouse model concurrent PK data and to correlate that with the endpoints of HCM using qPCR and immunoblotting. PK properties obtained from these mice were determined by Kana Mizuno and Alexander A. Vinks at Cincinnati Children's Hospital Medical Center. Dasatinib PK profiles and exposures (expressed as area under the concentration time curve; AUC) at doses ranging from 0.05 mg/kg to 0.5 mg/kg were estimated in NS and NSML mice. Based on the exposure-response relationship, potential target exposures to protect cardiac function were identified.

Row | Stock Stability ([1]; storage temperature 22° C.) [h] | Stock Stability ([1]; storage temperature −20° C.) [h] | SMILES | AUC [2] [ng·h/mL]
1 | 25 | 1010 | [2H]C1([2H])N(CCO)C([2H])([2H])C([2H])([2H])N(c2cc(Nc3ncc(C(=O)Nc4c(C)cccc4Cl)s3)nc(C)n2)C1([2H])[2H] [Dasatinib-D8] | –
2 | 25 | 1010 | Cc1nc(Nc2ncc(C(=O)Nc3c(C)cccc3Cl)s2)cc(N2CCN(CCO)CC2)n1 [Dasatinib] | 12 to 24
